Assay results: patent US7038112B2, “Fatty acid elongases” (Miami University, priority 1997, dated 2006)

Key:
EL1 = molecular target: T1, EL1 (Arabidopsis thaliana, UniProt Q9MAM3); assay: 18:0-CoA elongation by EL1 microsomes in standard reaction mix containing cerulenin; format: biochemical
T1 construct: Yeast cultures containing full-length EL1 in λYES and full-length EL2 in pYEUra3 were grown in the presence of galactose or glucose; made in house; microsomes of galactose-induced cells
Procedure: (§1) Fatty acid elongase activity was measured essentially as described in Hlousek-Radojcic, A. et al., Plant J. 8:803–809 (1995). Briefly, the standard elongation reaction mix contained 80 mM Hepes-KOH, pH 7.2, 20 mM MgCl2, 500 μM NADPH, 1 mM ATP, 100 μM malonyl-CoA, 10 μM CoA-SH and 15 μM radioactive acyl-CoA substrate. The radiolabeled substrate was either [1^−14C]18:1-CoA (50 uCi μmol^−1), [1^−14C]18:0-CoA (55 uCi μmol^−1), or [1^−14C]16:0-CoA (54 uCi μmol^−1). The reaction was initiated by the addition of yeast microsomes (5 μg protein) and the mixture incubated at 30° C. for the indicated period of time. The final reaction volume was 25 μl.
(§2) Methyl esters of the acyl-CoA elongation products were prepared as described in Example 1. Methyl esters were separated on reversed phase silica gel KC18 TLC plates (Whatman, […] thick), quantified by phosphorimaging, and analyzed on by ImageQuant software (Molecular Dynamics, Inc., Sunnyvale, Calif.). The detection limit for each product is about 0.001 nanomoles per min. per mg microsomal protein, depending on the phosphorimage exposure time.
(§3) In a third experiment, microsomes from induced and uninduced cultures containing EL1 or EL2 were incubated in the absence of cofactors involved in the β-ketoacyl condensation reaction. Cultures were induced and microsomes were prepared as described in Example 2. In vitro assays were carried out as described in Example 2, except that either ATP, CoASH or both were omitted from the enzyme reaction mixture.

EL2 = molecular target: T2, EL2 (Arabidopsis thaliana, UniProt Q9SYZ0); assay: 18:0-CoA elongation by EL2 microsomes in standard reaction mix containing cerulenin; format: biochemical
T2 construct: Yeast cultures containing full-length EL1 in λYES and full-length EL2 in pYEUra3 were grown in the presence of galactose or glucose; made in house; microsomes of galactose-induced cells
T2 sequence (Q9SYZ0 36-493): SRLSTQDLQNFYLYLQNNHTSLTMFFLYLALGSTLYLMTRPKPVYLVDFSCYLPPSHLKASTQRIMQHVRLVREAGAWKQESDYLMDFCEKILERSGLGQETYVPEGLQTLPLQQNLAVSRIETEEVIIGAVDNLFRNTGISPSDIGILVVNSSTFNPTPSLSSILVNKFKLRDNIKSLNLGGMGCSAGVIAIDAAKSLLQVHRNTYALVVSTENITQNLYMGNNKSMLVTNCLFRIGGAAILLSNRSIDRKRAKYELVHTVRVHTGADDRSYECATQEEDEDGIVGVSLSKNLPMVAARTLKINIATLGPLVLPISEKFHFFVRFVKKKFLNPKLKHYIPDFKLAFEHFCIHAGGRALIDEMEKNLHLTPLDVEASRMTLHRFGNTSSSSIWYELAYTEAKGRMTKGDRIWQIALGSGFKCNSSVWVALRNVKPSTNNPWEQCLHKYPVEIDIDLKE
Procedure: as §1, §2, §3

[1] = EL1, galactose-induced, +Cer 0.01 mM cerulenin, average of two experiments
[2] = EL2, galactose-induced, +Cer 0.01 mM cerulenin, average of two experiments

T1 sequence (Q9MAM3 9-528 limits assumed): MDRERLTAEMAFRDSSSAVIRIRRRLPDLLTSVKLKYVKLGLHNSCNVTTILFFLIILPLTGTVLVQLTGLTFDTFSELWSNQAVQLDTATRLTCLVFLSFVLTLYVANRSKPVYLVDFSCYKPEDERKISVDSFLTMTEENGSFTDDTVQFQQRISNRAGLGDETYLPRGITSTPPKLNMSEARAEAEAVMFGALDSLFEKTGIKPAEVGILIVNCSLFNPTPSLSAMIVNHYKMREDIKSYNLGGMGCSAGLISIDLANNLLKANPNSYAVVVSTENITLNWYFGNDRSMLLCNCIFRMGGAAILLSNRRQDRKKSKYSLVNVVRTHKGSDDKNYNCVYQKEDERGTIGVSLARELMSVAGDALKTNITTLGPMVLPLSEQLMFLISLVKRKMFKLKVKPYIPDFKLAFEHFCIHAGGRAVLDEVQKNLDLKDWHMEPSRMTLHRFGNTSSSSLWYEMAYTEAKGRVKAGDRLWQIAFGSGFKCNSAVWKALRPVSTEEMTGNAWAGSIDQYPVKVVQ

Compound: C/C=C/C/C=C/CCC(=O)[C@H]1O[C@H]1C(N)=O [cerulenin]
- inhibition of KAS activity of EL1 (EL1; 0.01 mM cerulenin): does not inhibit
- 20:0 product as a percent of total products formed (EL1; [1]): 46.7%
- 22:0 product as a percent of total products formed (EL1; [1]): 16.2%
- 24:0 product as a percent of total products formed (EL1; [1]): 17.7%
- 26:0 product as a percent of total products formed (EL1; [1]): 19.4%
- Total products as a percent of total products formed (EL1; [1]): 100.0%
- inhibition of KAS activity of EL2 (EL2; 0.01 mM cerulenin): does not inhibit
- 20:0 product as a percent of total products formed (EL2; [2]): 41.8%
- 22:0 product as a percent of total products formed (EL2; [2]): 16.1%
- 24:0 product as a percent of total products formed (EL2; [2]): 20.4%
- 26:0 product as a percent of total products formed (EL2; [2]): 21.8%
- Total products as a percent of total products formed (EL2; [2]): 100.0%
